Species: Rattus norvegicus
Experiment: DrugMatrix - Regimen: Daily Repeat
Format: toxicity, organism-based, Sprague-Dawley
Design: regimen Daily Repeat, gender Male, age 6-8 weeks
Settings: in vivo, po, 8 mg/kg, route oral GAVAGE, dose level Low, vehicle 100 % WATER; for ABSOLUTE BASOPHIL / ABSOLUTE EOSINOPHIL / ABSOLUTE LYMPHOCYTE / ABSOLUTE MONOCYTE / ABSOLUTE SEGMENTED NEUTROPHIL / BASOPHIL / EOSINOPHIL / ERYTHROCYTE COUNT / HEMATOCRIT / HEMOGLOBIN / LEUKOCYTE COUNT / LYMPHOCYTE / MEAN CORPUSCULAR HEMOGLOBIN / MEAN CORPUSCULAR HEMOGLOBIN CONCENTRATION / MEAN CORPUSCULAR VOLUME / MONOCYTE / NEUTROPHIL / NUCLEATED RED BLOOD CELLS / PLATELET COUNT: tissue Blood
[1] = 72 h, tissue Plasma, time 3 day
[2] = 120 h, tissue Plasma, time 5 day

## NNc1ccccc1 [PHENYLHYDRAZINE]
72 h, time 3 day
  ABSOLUTE BASOPHIL: 0 CELLS/uL
  ABSOLUTE EOSINOPHIL: 0 CELLS/uL
  ABSOLUTE LYMPHOCYTE: 13454.67 CELLS/uL
  ABSOLUTE MONOCYTE: 235.67 CELLS/uL
  ABSOLUTE SEGMENTED NEUTROPHIL: 1043 CELLS/uL
  BASOPHIL: 0%
  EOSINOPHIL: 0%
  ERYTHROCYTE COUNT: 5.23 x10E6/uL
  HEMATOCRIT: 34.17%
  HEMOGLOBIN: 13.63 G/DL
  LEUKOCYTE COUNT: 14.73 x10E3/uL
  LYMPHOCYTE: 91.33%
  MEAN CORPUSCULAR HEMOGLOBIN: 26.1 pg
  MEAN CORPUSCULAR HEMOGLOBIN CONCENTRATION: 39.93 G/DL
  MEAN CORPUSCULAR VOLUME: 65.33 fL
  MONOCYTE: 1.33%
  NEUTROPHIL: 7.33%
  NUCLEATED RED BLOOD CELLS: 0 /100WBC
  PLATELET COUNT: 994.33 x10E3/uL
[1]
  ALANINE AMINOTRANSFERASE: 53 u/L
  ALBUMIN: 4.17 G/DL
  ALKALINE PHOSPHATASE: 388 u/L
  ASPARTATE AMINOTRANSFERASE: 115 u/L
  BLOOD UREA NITROGEN: 15.33 mg/dL
  CARBON DIOXIDE: 21.33 mmol/L
  CHLORIDE: 102.67 MEQ/L
  CHOLESTEROL: 102.33 mg/dL
  CREATINE PHOSPHOKINASE: 1080.67 u/L
  CREATININE: 0.13 mg/dL
  GLUCOSE: 177 mg/dL
  LACTATE DEHYDROGENASE: 308.67 u/L
  LIPASE: 9.33 u/L
  PHOSPHORUS: 14.53 mg/dL
  POTASSIUM: 6.82 MEQ/L
  SODIUM: 146.1 MEQ/L
  TOTAL BILIRUBIN: 0.17 mg/dL
  TOTAL PROTEIN: 5.87 G/DL
  URIC ACID: 2.1 mg/dL
120 h, time 5 day
  ABSOLUTE BASOPHIL: 0 CELLS/uL
  ABSOLUTE EOSINOPHIL: 0 CELLS/uL
  ABSOLUTE LYMPHOCYTE: 16277.67 CELLS/uL
  ABSOLUTE MONOCYTE: 115 CELLS/uL
  ABSOLUTE SEGMENTED NEUTROPHIL: 974 CELLS/uL
  BASOPHIL: 0%
  EOSINOPHIL: 0%
  ERYTHROCYTE COUNT: 5.53 x10E6/uL
  HEMATOCRIT: 35.4%
  HEMOGLOBIN: 14.27 G/DL
  LEUKOCYTE COUNT: 17.37 x10E3/uL
  LYMPHOCYTE: 93.67%
  MEAN CORPUSCULAR HEMOGLOBIN: 25.8 pg
  MEAN CORPUSCULAR HEMOGLOBIN CONCENTRATION: 40.3 G/DL
  MEAN CORPUSCULAR VOLUME: 64.07 fL
  MONOCYTE: 0.67%
  NEUTROPHIL: 5.67%
  NUCLEATED RED BLOOD CELLS: 0 /100WBC
  PLATELET COUNT: 1250.67 x10E3/uL
[2]
  ALANINE AMINOTRANSFERASE: 46.67 u/L
  ALBUMIN: 4.1 G/DL
  ALKALINE PHOSPHATASE: 440.67 u/L
  ASPARTATE AMINOTRANSFERASE: 81.67 u/L
  BLOOD UREA NITROGEN: 15.33 mg/dL
  CARBON DIOXIDE: 26.33 mmol/L
  CHLORIDE: 102 MEQ/L
  CHOLESTEROL: 63 mg/dL
  CREATINE PHOSPHOKINASE: 289 u/L
  CREATININE: 0.12 mg/dL
  GLUCOSE: 147.67 mg/dL
  LACTATE DEHYDROGENASE: 310.67 u/L
  LIPASE: 9 u/L
  PHOSPHORUS: 13.93 mg/dL
  POTASSIUM: 6.84 MEQ/L
  SODIUM: 144.13 MEQ/L

From ChEMBL document CHEMBL3885881, “DrugMatrix”
